Source: patent US20160272645A1, “Heterocyclic Compounds and Methods of Use” (MEDIVATION TECHNOLOGIES, INC., priority 2013, published 2016)

Tests used:
BTK = molecular target: T1, BTK (Homo sapiens, UniProt Q06187); assay: BTK kinase profiling, HotSpot radiometric assay (Reaction Biology); assay type: biochemical; conditions: ATP 10 μM; for inhibition at 0.01 µM: compound 0.01 μM, read-out: BTK @ 0.01 μM (% Inh); for inhibition at 0.1 µM: compound 0.1 μM, read-out: BTK @ 0.1 μM (% Inh); for inhibition at 1 µM: compound 1 μM, read-out: BTK @ 1 μM (% Inh)
T1 construct: purchased Reaction Biology Corporation
Method: (§1) Compounds of the invention were profiled in a 10 dose IC50 panel against BTK and PI3Kδ, both provided by Reaction Biology Corporation.
BTK assay: In vitro profiling protein kinases was performed using the “HotSpot” assay platform. Briefly, specific kinase/substrate pairs along with required cofactors were prepared in reaction buffer. Compounds were prepared as 10 mM stock solutions in DMSO. Compounds were delivered into the reaction, followed 15-20 minutes later by addition of a mixture of ATP (Sigma, St. Louis Mo.) and ^33P ATP (Perkin Elmer, Waltham Mass.) to a final concentration of 10 μM. Reactions were carried out at RT for 120 min, followed by spotting of the reactions onto P81 ion exchange filter paper (Whatman Inc., Piscataway, N.J.). Unbound phosphate was removed by extensive washing of filters in 0.75% Phosphoric acid. […] ICso values and curve fits were obtained using Prism (GraphPad Software). Buffer Conditions: 20 mM Hepes (pH 7.5), 10 mM MgCl2, 1 mM EGTA, 0.02% Brij35, 0.02 mg/mL BSA, 0.1 mM Na3VO4, 2 mM DTT, 1% DMSO.

[1] = system: CD69+B220+ cells (mouse spleen cells); assay: B cell activation assay (IgD-stimulated CD69 on B220+ spleen cells, FACS); assay type: cell-based; conditions: 100 nM test compound, 30 min, then IgD 3 μg/mL 4 h, read-out: CD69 @ 100 nM (% Inh)
Method: 1 Female mouse approximately 2 months old was euthanized with CO2 and the spleen removed. The tissue was homogenized with a polished glass microscope slide. The cells were collected in 5 mL complete medium (RPMI+10% FBS+pen/strep), placed in a 15 mL falcon tube and centrifuged at 500×g for 5 min. The supernatant was discarded and the pellet was resuspended in 3 mL of ACK lysis buffer (NH4Cl 0.17M, KHCO3 10 mM, EDTA-Na2 0.1 mM, pH 7.2), incubated at 37° C. for 5 min. 2 mL complete medium was added and the mixture centrifuged at 500×g for 5 min. The supernatant was discarded and the pellet resuspended in 1 mL complete medium. The mixture was passed through a […] cell strainer and collect in 50 mL falcon tube. Enough medium was added to have a total of 10 mL. The cells were counted and seeded in 24 or 48-well plate in 1 mL complete medium at 10^6 cells/mL. The plate was placed in a 37° C. incubator for 15 min. The cells were treated for 30 min at 37° C. with 100 nM test compound dissolved in 100% DMSO. 3 μL IgD (Accurate chemical and scientific corp.) was added at a final concentration of 3 μg/mL and the mixture incubated at 37° C. for 4 h. The cells were collected in 1.5 mL eppendorf tubes, centrifuged at 500×g for 5 min and then resuspended in 100 μL of PBS+2% FBS. The following antibodies were added: α-B220 PE (pharmingen #553090), α-CD69 APC (pharmingen #60689), live/dead fixable aqua dead cell stain kit (life technologies # L34957) all at 1:300, and the mixture incubated for 15 min at 4° C. in the dark. To this was added 900 μL of PBS+2% FBS and the mixture centrifuged at 500×g for 5 min. The supernatant was removed and the pellet resuspended in 300 μL of PBS+2% FBS and mixed well. The mixture was transferred to a cytometer tube. The samples were run in the FACS Canto II cytometer and quantified by the number of CD69+B220+ cells as a percentage of the total number of B220+ alive cells.

PI3Kδ [2] = molecular target: T2, PI3Kδ (Homo sapiens, UniProt O00329); assay: PI3Kδ kinase profiling, HTRF PIP3 displacement assay (Reaction Biology); assay type: biochemical; conditions: ATP 10 μM; for inhibition at 0.01 µM: compound 0.01 μM, read-out: PI3Kδ @ 0.01 μM (% Inh); for inhibition at 0.1 µM: compound 0.1 μM, read-out: PI3Kδ @ 0.1 μM (% Inh)
T2 construct: purchased Reaction Biology Corporation

PI3Kδ [3] = molecular target: T2, PI3Kδ; assay: as above; assay type: biochemical; conditions: compound 1 μM; ATP 10 μM; read-out: PI3Kδ @ 1 μM (% Inh)
From the text: as §1
PI3Kδ assay: The PIP3 product is detected by displacement of biotin-PIP3 from an energy transfer complex consisting of Europium labeled anti-GST monoclonal antibody, a GST-tagged pleckstrin homology (PH) domain, biotinylated PIP3 and Streptavidin-Allophycocyanin (APC). Excitation of Europium in the complex results in an energy transfer to the APC and a fluorescent emission at 665 nm. The PIP3 product formed by PI3-Kinase (h) activity displaces biotin-PIP3 from the complex resulting in a loss of energy transfer and thus a decrease in signal. This is a 3-step reaction: First, the kinase reaction with PIP2 substrate is carried out in the presence of ATP (10 μM), and the reaction is quenched with stop Solution, and then finally detect by adding Detection Mixture followed by incubation (10 min). Reaction procedure: 1) Prepare substrate in freshly prepared Reaction Buffer. 2) Deliver kinase into the substrate solution and gently mix. 3) Deliver compounds in 100% DMSO (1 μM) into the kinase reaction mixture by Acoustic technology (Echo550; nanoliter range), incubate for 10 min at RT. 4) Deliver ATP into the reaction mixture to initiate the reaction. 5) Incubate for 30 min at 30° C. 6) Quench the reaction with Stop Solution. 7) Add Detection Mixture, and incubate for overnight. 8) Measure HTRF: Ex=320 nm, ratio of Em=615 nm and Em=665 nm. The emission ratio is converted into μM PIP3 production based on PIP3 standard curves. The nonlinear regression to obtain the standard curve and IC50 values are performed using Graphpad Prism software. Assay Buffer: HEPES 50 mM (pH7.0), NaN3 0.02%, BSA 0.01%, Orthovanadate 0.1 mM, 1% DMSO. Detection buffer: HEPES 10 mM (pH7.0), BSA 0.02%, KF 0.16 M, EDTA 4 mM. Substrate: 10 μM PIP2 substrate (PI(4,5)P2).

[4] = system: CD69+B220+ cells (mouse spleen cells); assay: B cell activation assay (IgD-stimulated CD69 on B220+ spleen cells, FACS); assay type: cell-based; conditions: IgD 3 μg/mL 4 h

T2 sequence (O00329 whole entry): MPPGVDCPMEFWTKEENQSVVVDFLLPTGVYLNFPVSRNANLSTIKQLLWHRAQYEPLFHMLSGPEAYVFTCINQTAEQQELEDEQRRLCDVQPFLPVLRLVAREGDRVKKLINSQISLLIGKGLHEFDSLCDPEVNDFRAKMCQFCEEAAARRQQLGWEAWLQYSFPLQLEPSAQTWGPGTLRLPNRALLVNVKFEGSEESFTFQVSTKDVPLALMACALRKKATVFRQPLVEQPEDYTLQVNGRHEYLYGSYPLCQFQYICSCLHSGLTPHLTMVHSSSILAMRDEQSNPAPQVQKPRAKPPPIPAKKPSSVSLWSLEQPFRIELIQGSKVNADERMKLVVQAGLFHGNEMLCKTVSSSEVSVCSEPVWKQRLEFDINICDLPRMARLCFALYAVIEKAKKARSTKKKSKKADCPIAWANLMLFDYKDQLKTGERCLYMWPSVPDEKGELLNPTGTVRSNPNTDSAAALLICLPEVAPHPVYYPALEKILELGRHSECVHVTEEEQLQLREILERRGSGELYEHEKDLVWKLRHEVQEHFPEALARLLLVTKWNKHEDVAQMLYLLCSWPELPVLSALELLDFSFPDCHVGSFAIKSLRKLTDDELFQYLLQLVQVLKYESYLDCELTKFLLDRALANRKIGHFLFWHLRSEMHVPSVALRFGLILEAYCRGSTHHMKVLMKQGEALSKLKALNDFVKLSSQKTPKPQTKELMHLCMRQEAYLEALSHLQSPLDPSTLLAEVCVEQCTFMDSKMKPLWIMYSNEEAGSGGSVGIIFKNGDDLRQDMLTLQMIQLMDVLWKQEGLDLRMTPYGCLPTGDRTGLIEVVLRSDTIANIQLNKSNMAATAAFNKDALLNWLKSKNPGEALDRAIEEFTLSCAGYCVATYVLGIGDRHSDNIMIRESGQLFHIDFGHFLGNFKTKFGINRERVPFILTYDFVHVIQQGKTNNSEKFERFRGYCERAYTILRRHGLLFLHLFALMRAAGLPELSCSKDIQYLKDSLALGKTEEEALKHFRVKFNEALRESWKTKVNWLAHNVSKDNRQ
T2 sequence (P27986 whole entry partner): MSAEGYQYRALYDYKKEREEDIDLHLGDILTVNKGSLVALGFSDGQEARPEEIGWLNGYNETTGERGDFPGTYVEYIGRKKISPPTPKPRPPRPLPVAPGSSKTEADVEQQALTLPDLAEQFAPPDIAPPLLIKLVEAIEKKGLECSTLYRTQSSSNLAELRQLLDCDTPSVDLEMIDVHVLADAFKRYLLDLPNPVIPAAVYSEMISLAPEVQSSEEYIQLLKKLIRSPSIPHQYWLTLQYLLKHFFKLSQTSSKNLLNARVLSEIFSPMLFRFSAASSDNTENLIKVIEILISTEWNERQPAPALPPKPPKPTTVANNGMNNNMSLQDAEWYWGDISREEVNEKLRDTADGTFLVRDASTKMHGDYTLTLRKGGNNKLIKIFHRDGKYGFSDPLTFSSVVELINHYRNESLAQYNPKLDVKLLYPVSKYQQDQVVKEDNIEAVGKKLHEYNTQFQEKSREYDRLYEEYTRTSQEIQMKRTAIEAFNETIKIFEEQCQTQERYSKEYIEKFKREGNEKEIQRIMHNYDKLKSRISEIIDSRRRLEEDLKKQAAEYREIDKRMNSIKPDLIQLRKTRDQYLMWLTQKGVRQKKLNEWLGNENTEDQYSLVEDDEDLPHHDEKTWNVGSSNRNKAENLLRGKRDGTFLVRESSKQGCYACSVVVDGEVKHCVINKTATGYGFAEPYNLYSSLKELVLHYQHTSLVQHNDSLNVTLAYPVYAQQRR
T1 sequence (Q06187 whole entry): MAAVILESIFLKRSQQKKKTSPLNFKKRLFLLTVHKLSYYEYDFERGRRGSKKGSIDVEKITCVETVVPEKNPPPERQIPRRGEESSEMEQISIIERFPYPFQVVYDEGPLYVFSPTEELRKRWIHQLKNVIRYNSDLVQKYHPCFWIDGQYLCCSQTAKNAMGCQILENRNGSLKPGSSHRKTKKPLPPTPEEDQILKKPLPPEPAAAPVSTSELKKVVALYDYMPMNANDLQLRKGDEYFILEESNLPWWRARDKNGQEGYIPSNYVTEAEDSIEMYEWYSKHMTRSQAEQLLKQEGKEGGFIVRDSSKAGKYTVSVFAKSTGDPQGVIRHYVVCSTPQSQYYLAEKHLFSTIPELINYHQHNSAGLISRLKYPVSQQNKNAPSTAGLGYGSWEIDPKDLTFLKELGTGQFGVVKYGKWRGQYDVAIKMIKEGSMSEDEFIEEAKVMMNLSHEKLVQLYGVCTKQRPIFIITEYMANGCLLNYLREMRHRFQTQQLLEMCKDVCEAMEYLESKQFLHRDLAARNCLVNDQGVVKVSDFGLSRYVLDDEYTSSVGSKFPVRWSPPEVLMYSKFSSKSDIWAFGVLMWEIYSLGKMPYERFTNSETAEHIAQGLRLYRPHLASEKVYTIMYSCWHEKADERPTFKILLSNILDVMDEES

`Nc1ncnc2c1c(-c1cc(O)cc(F)c1)nn2CCNCc1ccccc1` [Compound 4, 3-{4-amino-1-[2-(benzylamino)ethyl]-1H-pyrazolo[3,4-d]pyrimidin-3-yl}-5-fluorophenol] was tested, and the inhibition at 0.01 µM (BTK) was -1.37%, the inhibition at 0.1 µM (BTK) was 14.8% and the inhibition at 0.1 µM [1] was 39.1 ± 7.85%. For the same compound, the inhibition at 0.01 µM (PI3Kδ [2]) was 1.78% and the inhibition at 0.1 µM (PI3Kδ [2]) was 68%.

Compound `CCC(=O)N(CCn1nc(-c2cc(O)cc(F)c2)c2c(N)ncnc21)Cc1ccccc1` [Compound 7, N-{2-[4-amino-3-(3-fluoro-5-hydroxyphenyl)-1H-pyrazolo[3,4-d]pyrimidin-1-yl]ethyl}-N-benzylpropanamide] has an inhibition at 1 µM (PI3Kδ [3]) of 96.3%, an inhibition at 0.1 µM (BTK) of 19.9% and an inhibition at 1 µM (BTK) of 20.6%. It also gave an IC50 [4] of 81.9 ± 6.5 nM, an inhibition at 0.1 µM [1] of 66.5 ± 5.85% and an inhibition at 0.1 µM (PI3Kδ [2]) of 83.5%.

In the case of `Nc1ncnc2c1c(-c1cc(O)cc(F)c1)nn2CCN(Cc1ccccc1)C(=O)C1CC1` [Compound 8, N-{2-[4-amino-3-(3-fluoro-5-hydroxyphenyl)-1H-pyrazolo[3,4-d]pyrimidin-1-yl]ethyl}-N-benzylcyclopropanecarboxamide], the inhibition at 1 µM (PI3Kδ [3]) is reported as 86.1%, the inhibition at 0.1 µM (BTK) is reported as 9.54% and the inhibition at 1 µM (BTK) is reported as 12.2%. For the same compound, the inhibition at 0.1 µM (PI3Kδ [2]) was 70%.

Work on `C=CC(=O)N(CCn1nc(-c2cc(F)cc(OC(C)=O)c2)c2c(N)ncnc21)Cc1ccccc1` [Compound 9, 3-{4-amino-1-[2-(N-benzylprop-2-enamido)ethyl]-1H-pyrazolo [3,4-d]pyrimidin-3-yl}-5-fluorophenyl acetate] yielded an inhibition at 1 µM (PI3Kδ [3]) of 85.2%, an inhibition at 0.1 µM (BTK) of 47.3% and an inhibition at 1 µM (BTK) of 91.6%. For the same compound, the inhibition at 0.1 µM (PI3Kδ [2]) was 47%.

`C=CC(=O)N(CCn1cc(-c2ccc(Cl)c(O)c2)c2c(N)ncnc21)Cc1ccc(F)cc1` [Compound 13, N-{2-[4-amino-5-(4-chloro-3-hydroxyphenyl)-7H-pyrrolo[2,3-d]pyrimidin-7-yl]ethyl}-N-[(4-fluorophenyl)methyl]prop-2-enamide] showed an inhibition at 0.01 µM (BTK) of 95.6%, an inhibition at 0.1 µM (BTK) of 98.6% and an inhibition at 0.1 µM [1] of -165 ± 63%. It also gave an inhibition at 0.01 µM (PI3Kδ [2]) of 14% and an inhibition at 0.1 µM (PI3Kδ [2]) of 43%.

`C=CC(=O)N(CCn1nc(-c2ccc(Cl)c(O)c2)c2c(N)ncnc21)Cc1ccc(F)cc1` [Compound 14, N-{2-[4-amino-3-(4-chloro-3-hydroxyphenyl)-1H-pyrazolo[3,4-d]pyrimidin-1-yl]ethyl}-N-[(4-fluorophenyl)methyl]prop-2-enamide] was tested, and the inhibition at 0.01 µM (BTK) was 86.5%, the inhibition at 0.1 µM (BTK) was 96.1% and the inhibition at 0.1 µM [1] was -135 ± 55.8%. It also gave an inhibition at 0.01 µM (PI3Kδ [2]) of 24.8% and an inhibition at 0.1 µM (PI3Kδ [2]) of 55%.

`C=CC(=O)N(CCn1nc(-c2ccc(Cl)c(O)c2)c2c(N)ncnc21)Cc1ccc(Cl)cc1` [Compound 15, N-{2-[4-amino-3-(4-chloro-3-hydroxyphenyl)-1H-pyrazolo[3,4-d]pyrimidin-1-yl]ethyl}-N-[(4-chlorophenyl)methyl]prop-2-enamide] gave an inhibition at 0.01 µM (BTK) of 48.5%, an inhibition at 0.1 µM (BTK) of 92.1% and an inhibition at 0.1 µM [1] of -103 ± 45.4%. It also gave an inhibition at 0.01 µM (PI3Kδ [2]) of 7.57% and an inhibition at 0.1 µM (PI3Kδ [2]) of 31.1%.

`C=CC(=O)N(CCn1nc(-c2ccc(Cl)c(O)c2)c2c(N)ncnc21)Cc1ccc(OC)cc1` [Compound 17, N-{2-[4-amino-3-(4-chloro-3-hydroxyphenyl)-1H-pyrazolo[3,4-d]pyrimidin-1-yl]ethyl}-N-[(4-methoxyphenyl)methyl]prop-2-enamide] gave an inhibition at 0.01 µM (BTK) of 90.3%, an inhibition at 0.1 µM (BTK) of 96.2% and an inhibition at 0.1 µM [1] of -61.1 ± 47.1%. It also gave an inhibition at 0.01 µM (PI3Kδ [2]) of 13.6% and an inhibition at 0.1 µM (PI3Kδ [2]) of 41.1%.

With `C=CC(=O)N(CCn1nc(-c2cc(F)c3c(c2)NCCO3)c2c(N)ncnc21)Cc1ccc(Cl)cc1` [Compound 18, N-{2-[4-amino-3-(8-fluoro-3,4-dihydro-2H-1,4-benzoxazin-6-yl)-1H-pyrazolo [3,4-d]pyrimidin-1-yl]ethyl}-N-[(4-chlorophenyl)methyl]prop-2-enamide] the inhibition at 0.01 µM (BTK) was 62.5%, the inhibition at 0.1 µM (BTK) was 93.1% and the inhibition at 0.1 µM [1] was -7.39 ± 6.26%. It also gave an inhibition at 0.01 µM (PI3Kδ [2]) of 20.8% and an inhibition at 0.1 µM (PI3Kδ [2]) of 23.4%.

`C=CC(=O)N(CCn1nc(-c2ccc(Cl)c(O)c2)c2c(N)ncnc21)Cc1ccco1` [Compound 20, N-{2-[4-amino-3-(4-chloro-3-hydroxyphenyl)-1H-pyrazolo[3,4-d]pyrimidin-1-yl]ethyl}-N-(furan-2-ylmethyl)prop-2-enamide] showed an inhibition at 0.01 µM (BTK) of 90.3%, an inhibition at 0.1 µM (BTK) of 95.4% and an inhibition at 0.1 µM [1] of -82 ± 14.7%. It also gave an inhibition at 0.01 µM (PI3Kδ [2]) of 17.1% and an inhibition at 0.1 µM (PI3Kδ [2]) of 40.6%.

Work on `Nc1ncnc2c1c(-c1cc(O)c(F)c(F)c1)nn2CCNc1ncccn1` [Compound 21, 5-(4-amino-1-{2-[(pyrimidin-2-yl)amino]ethyl}-1H-pyrazolo[3,4-d]pyrimidin-3-yl)-2,3-difluorophenol] yielded an inhibition at 0.01 µM (BTK) of 9.64%, an inhibition at 0.1 µM (BTK) of 37.1% and an inhibition at 0.1 µM [1] of 18.2 ± 2.92%. The inhibition at 0.01 µM (PI3Kδ [2]) was 8.59% and the inhibition at 0.1 µM (PI3Kδ [2]) was 56.6%.

`Nc1ncnc2c1c(-c1cc(O)c(F)c(F)c1)nn2CCNCc1cccnc1` [Compound 23, 5-(4-amino-1-{2-[(pyridin-3-ylmethyl)amino]ethyl}-1H-pyrazolo[3,4-d]pyrimidin-3-yl)-2,3-difluorophenol] showed an inhibition at 0.01 µM (BTK) of 12.7%, an inhibition at 0.1 µM (BTK) of 60.5% and an inhibition at 0.1 µM [1] of 39.7 ± 10.2%. The inhibition at 0.01 µM (PI3Kδ [2]) was 3.31% and the inhibition at 0.1 µM (PI3Kδ [2]) was 66.7%.

Compound `C=CC(=O)N(CCn1nc(-c2ccc(Oc3ccccc3)cc2)c2c(N)ncnc21)Cc1ccccc1` [Compound 24, N-{2-[4-amino-3-(4-phenoxyphenyl)-1H-pyrazolo[3,4-d]pyrimidin-1-yl]ethyl}-N-benzylprop-2-enamide] has an inhibition at 0.01 µM (BTK) of 96.5%, an inhibition at 0.1 µM (BTK) of 96.7% and an inhibition at 0.1 µM [1] of 55.8 ± 9.1%. It also gave an inhibition at 0.01 µM (PI3Kδ [2]) of -32.3% and an inhibition at 0.1 µM (PI3Kδ [2]) of 0.74%.
